{"source": "patent US20020115663A1", "about": "“Novel compounds” (priority 2000, published 2002)", "biological_target": "Human PTP1B (Homo sapiens, UniProt P18031)", "sequence (P18031 1-298)": "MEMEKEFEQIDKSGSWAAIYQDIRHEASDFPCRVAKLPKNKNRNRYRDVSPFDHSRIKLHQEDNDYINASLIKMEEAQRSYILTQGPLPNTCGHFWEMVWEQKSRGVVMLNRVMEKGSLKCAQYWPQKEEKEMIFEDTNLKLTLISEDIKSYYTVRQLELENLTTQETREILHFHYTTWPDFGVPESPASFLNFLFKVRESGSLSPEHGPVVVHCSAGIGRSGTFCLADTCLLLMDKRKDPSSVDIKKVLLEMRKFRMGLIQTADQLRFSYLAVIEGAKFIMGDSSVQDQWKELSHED", "details": "2 mM, control wells", "method": "Human PTP1B (amino acid residues 1-298, cloned from a human placental library), without the GST tag and thrombin cleavage site, was inserted into a pMB replicon and transformed into E. coli BL21 (DE3), a strain containing a chromosomal copy of the gene for T7 RNA polymerase under control of a lacUV5 promoter. Expression of PTP1B was induced with isopropyl thiogalactose and cells were lysed in lysis buffer comprising 50 mM Tris-HCl pH 7.5, 10% glycerol, 1 mM EDTA, 3 mM DTT, 3 mM MgCl2, and 0.2 mg/ml lysozyme with 1 mg/ml DNAse I. The soluble protein was purified by ion exchange, hydrophobic interaction and gel exclusion chromatography for use in assays to identify PTP1B inhibitors. […] Recombinant proteins were stored at −70° C. until used.\nHuman PTP1B activity was measured using p-nitrophenol phosphate (pNPP) as substrate in a 96-well microtiter plate format. An assay pH of 7.2 is used for standard assays (measured extinction coefficient =9800 at pH 7.2).\nStandard assays were conducted at room temperature in a total volume of 0.2 ml that contains Hepes buffer (50 mM, pH 7.2), NaCl (50 mM), EDTA (1 mM), DTT (1 mM), bovine serum albumin (1 mg/ml), pNPP (1.25 mM) and PTP1B (500 ng/ml, 13.5 nM). […] The OD^405 was subsequently measured. […]", "data": [{"smiles": "[Na+].[Na+].[Na+].[O]=[V]([O-])([O-])[O-]", "note": "[sodium orthovanadate]", "values": [{"measurement": "inhibition of PTP1B-catalyzed hydrolysis of pNPP", "value": "completely"}]}]}
